From patent US20030134779A1, “Method and composition for treatment and/or prevention of antibiotic-resistant microorganism infections” (priority 2002, published 2003)
Where two headings read alike, the source gives them in different places.

Columns and labels:
[1] = system: β-lactamase activity of S. aureus SHY97-4320; test: β-lactamase activity, nitrocefin assay, bovine LF/LFC; format: cell-based; conditions: 8-μg/ml penicillin G alone
Description: The effects of sub-MICs of LF (1 mg/ml), LFC (32 and 64 μg/ml) alone or in combination with ampicillin (4μg/ml) or penicillin G (8 μg/ml) were evaluated on the β-lactamase activity of S. aureus strains SHY97-4320 and PC-1. The chromogenic cephalosporin nitrocefin (Becton Dickinson, Microbiology, Cockeysville, Md.) was used in a quantitative spectrophotometric assay. Bacterial cells were first exposed during 4 and 22-h to drugs in broth. The number of bacteria (cfu/ml) were determined and cells aliquots were centrifuged at each point in time. The pellets were suspended in 10 mM HEPES buffer (pH 7.4) to an OD415 nm of 1 for PC-1 and 2 for SHY97-4320. Nitrocefin (100 μM) was added to 100 μl of cells in a final volume of 1 ml. Hydrolysis was measured at 486 nm on spectrophotometer. β-lactamase activity was expressed as ΔO.D.486 nm/min and corrected for bacterial OD.

S. aureus ATCC 25923 = test: Checkerboard MICs and FIC index, penicillin with bovine LF; format: cell-based, Staphylococcus aureus
Description: (§1) The MICs were determined by both macrodilution (1 ml/tube) and microdilution (100 μl/well) in sterile 96 well microtiter plates (International Nunc, Napierville, Ill.) techniques in three separate experiments according to the National Committee for Clinical Laboratory Standards (1992 and 1999) in three separate experiments. Serial 2-fold dilutions in MHB of LF, LFC, antibiotic or combination of LF or LFC with antibiotic were inoculated with an overnight culture at a final inoculum of 10^6 cfu/ml in MHB. Effect of LF combination with antibiotic on MICs were determined by adding 0.5 mg or 1 mg/ml of LF to each antibiotic dilution. The MIC was defined as the lowest concentration of drug (highest dilution) that caused a complete inhibition of bacterial growth after an incubation of 18 h. Effect of LF or LFC combination with antibiotic on MIC was also determined by checkerboard method using 96 well microtiter plates. Each antibiotic dilution (50 μl) was serially added to the wells in vertical rows starting from the top (lower dilution) to the bottom. Lactoferrin or LFC (50 μl) were added to 50 μl of each antibiotic dilution and serially diluted starting at the left (lower dilution) to the right. After inoculation, the final concentration of antibiotic from top to bottom were 32 to 8, 2 to 0.5, 0.5 to 0.125 μg/ml for penicillin, cefazolin and neomycin, respectively. From left to right, the concentration of LF or LFC were 25 to 0.0244 mg/ml or 256 to 0.5 μg/ml respectively in a final volume of 100 μl/well. The microplate's were incubated at 37° C. for 24 h. Bacterial growth was measured optically at 540 nm using Spectra Max 250 Microplate Spectrophotometer System of Molecular Device (Fisher Scientific, Ottawa, Canada). Tubes were incubated at 37° C. for 18 h and bacterial growth was measured by visual examination and optically at 540 nm using a spectrophotometer (Philips PU 8800; Pye Unican Ltd, Cambridge, UK). The fractional inhibitory concentration (FIC) was calculated as described by Eliopoulos and Moellering (1991).
(§2) FIC antibiotic A=MICantibiotic A (in the presence of antibiotic B)/MICantibiotic A alone. FIC Index=FICantibiotic A+FICantibiotic B
(§3) The effects of the antibiotics were considered to be synergistic or indifferent when FIC Index was<1 or>1, respectively.

S. aureus SHY97-4320 = test: as above; format: cell-based, Staphylococcus aureus; conditions: for Decrease (of MIC of penicillin): by combination with bovine LF
Description: as §1, §2, §3

S. aureus SHY97-3906 = test: as above; format: cell-based, Staphylococcus aureus; conditions: for Decrease (of MIC of penicillin): by combination with bovine LF
Description: as §1, §2, §3

S. aureus PC-1 = test: as above; format: cell-based, Staphylococcus aureus; conditions: by combination with bovine LF
Description: as §1, §2, §3

S. aureus 22260 = test: MIC of penicillin G alone or with bovine LF, macrodilution; format: cell-based, Staphylococcus aureus; conditions: strain β-lactamase +B, read-out: MICs of penicillin G
From the text: (§4) Staphylococcus aureus strains ATCC 25923 and 6538 and Escherichia coli ATCC 25922 were obtained from the American Type Culture Collection. Eight bovine mastitis clinical isolates of S. aureus (SHY97-3906, -3923, -4085 -4242, -4320 and -4343, RFT-1 and RFT-5) and one isolate of E. coli SHY97-3923-2 and one isolate of Kiebsiella pneumoniae SHY99-723-1 were kindly provided by the Laboratoire Provincial de Pathologie Animale of St-Hyacinthe and of Rock-Forest (Quebec, Canada), respectively. Nine β-lactam antibiotics resistant S. aureus strains (PC-1, NCTC 9789, 2076, 22260, ST79/741, 3804, RN9, FAR8, and FAR10) were obtained from Vanderbilt University School of Medicine (Nashville, Tenn., USA). All the culture media were from Difco Laboratories (Detroit, Mich.). Bacteria from frozen stock at −80° C. were streaked onto tryptic soy agar plates suplemented with 5% of defibrinated sheep blood (Quelab, Montreal, QC, Canada) or Brain Heart infusion agar plates. Plates were then incubated for 16 to 24 h at 37° C. For most experiments, the strains were subcultured onto Mueller Hinton agar plates (MHA) or broth (MHB) for an additional 16-20 h. Aqueous solutions of the tested products were added by filtration through a sterile filter assembly (pore size 0.2 μm, Fisher, Ottawa, Ontario).
as §1

S. aureus 2076 = test: as above; format: cell-based, Staphylococcus aureus; conditions: strain β-lactamase +A, read-out: MICs of penicillin G
From the text: as §4, §1

S. aureus 3804^f = test: as above; format: cell-based, Staphylococcus aureus; conditions: strain β-lactamase +C; for MIC: Staphylococcus aureus
From the text: as §4, §1

S. aureus strains = test: MIC / FIC determination, summary over strains; format: cell-based, Staphylococcus aureus; conditions: with 0.5 mg/ml LF; all tested strains except ATCC 25923 and SHY97-3906 (needed 1 mg/ml LF)
From the text: Staphylococcus aureus strains ATCC 25923 and 6538 and Escherichia coli ATCC 25922 were obtained from the American Type Culture Collection. Eight bovine mastitis clinical isolates of S. aureus (SHY97-3906, -3923, -4085 -4242, -4320 and -4343, RFT-1 and RFT-5) and one isolate of E. coli SHY97-3923-2 and one isolate of Kiebsiella pneumoniae SHY99-723-1 were kindly provided by the Laboratoire Provincial de Pathologie Animale of St-Hyacinthe and of Rock-Forest (Quebec, Canada), respectively. Nine β-lactam antibiotics resistant S. aureus strains (PC-1, NCTC 9789, 2076, 22260, ST79/741, 3804, RN9, FAR8, and FAR10) were obtained from Vanderbilt University School of Medicine (Nashville, Tenn., USA). […]
The MICs were determined by both macrodilution (1 ml/tube) and microdilution (100 μl/well) in sterile 96 well microtiter plates (International Nunc, Napierville, Ill.) techniques in three separate experiments according to the National Committee for Clinical Laboratory Standards (1992 and 1999) in three separate experiments. […] Effect of LF combination with antibiotic on MICs were determined by adding 0.5 mg or 1 mg/ml of LF to each antibiotic dilution. […] Effect of LF or LFC combination with antibiotic on MIC was also determined by checkerboard method using 96 well microtiter plates. […] The fractional inhibitory concentration (FIC) was calculated as described by Eliopoulos and Moellering (1991). […]

## CC1(C)S[C@@H]2[C@H](NC(=O)Cc3ccccc3)C(=O)N2[C@H]1C(=O)O [penicillin G, Penicillin G]
[1]
  β-lactamase activity: a large increase in β-lactamase activity
S. aureus ATCC 25923; Staphylococcus aureus, ATCC25923, in combination with bovine LF, checkerboard
  MIC: 0.0156 µg/mL
S. aureus ATCC 25923; by combination with bovine LF
  Decrease (of MIC of penicillin): 2 fold
S. aureus SHY97-4320; Staphylococcus aureus, SHY974320, in combination with bovine LF, checkerboard
  MIC: 16 µg/mL
S. aureus SHY97-4320; listed as Penicillin
  Decrease (of MIC of penicillin): 4 fold
S. aureus SHY97-4320; listed as penicillin
  Decrease (of MIC of penicillin): four fold
S. aureus SHY97-3906; Staphylococcus aureus, SHY973906, in combination with bovine LF, checkerboard
  MIC: 0.125 µg/mL
S. aureus SHY97-3906; listed as Penicillin
  Decrease (of MIC of penicillin): 4 fold
S. aureus SHY97-3906; listed as penicillin
  Decrease (of MIC of penicillin): four fold
S. aureus PC-1; listed as Penicillin
  Decrease (of MIC of penicillin): ≧2 fold
S. aureus PC-1; listed as penicillin
  Decrease (of MIC of penicillin): ≥ 2 fold
S. aureus 22260; Staphylococcus aureus, 22260, +0.5 mg/ml LF
  MIC: 16 µg/mL
S. aureus 22260; Staphylococcus aureus, 22260, +1 mg/ml LF
  MIC: 16 µg/mL
S. aureus 22260; Staphylococcus aureus, 22260, Alone
  MIC: 32 µg/mL
S. aureus 2076; Staphylococcus aureus, 2076, +0.5 mg/ml LF
  MIC: 0.25 µg/mL
S. aureus 2076; Staphylococcus aureus, 2076, +1 mg/ml LF
  MIC: 0.25 µg/mL
S. aureus 2076; Staphylococcus aureus, 2076, Alone
  MIC: 0.5 µg/mL
S. aureus 3804^f; +1 mg/ml LF
  MICs of penicillin G: 64 µg/mL
S. aureus 3804^f; read-out: MICs of penicillin G, Alone
  MIC: 128 µg/mL
S. aureus 3804^f; +0.5 mg/ml LF, read-out: MICs of penicillin G
  MIC: 64 µg/mL
S. aureus strains
  increase of inhibitory activity of penicillin: two-fold
